In patent publication US8163718B2, “Nucleoside analogues containing phosphonate or phosphonamide groups” (Gilead Sciences, Inc., priority 2008, dated 2012):

Assays:
Assay in all cases: Cytostatic cell culture assay (GI50), SRB
Type in all cases: cell-based
Hs-578 = conditions: Hs578, 120 h; 5 days incubation
Excerpt: (§1) The assay is based on quantification of cell counts by a colorimetric detection of the cell associated proteins. The assay relies on the ability of sulforhodamine B (SRB) to bind to protein components of cells that have been fixed to tissue-culture plates by trichloroacetic acid (TCA). SRB is a bright-pink aminoxanthene dye with two sulfonic groups that bind to basic amino-acid residues under mild acidic conditions, and dissociate under basic conditions. As the binding of SRB is stoichiometric, the amount of dye extracted from stained cells is directly proportional to the cell mass.
(§2) Cell lines: All cell lines were obtained from ATCC (Manassas, Va.). Cultivation media containing Glutamax, and trypsin were purchased from Invitrogen (Carlsbad, Calif.). Doxorubicin, Clofarabine, TCA and SRB were from Sigma-Aldrich (St. Louis, Mo.). Gemcitabine was obtained from Moravek Biochemicals (Brea, Calif.)
(§3) • 1. Trypsinize the sub-confluent cells, count them, and adjust the cell concentrations according to the cell counts listed in Table 1. • 2. Distribute the cells into the 96-well plates in 150 μL of media. Incubate the plates overnight in humidified CO2 incubator at 37° C. • 3. Fix one plate of each cell line with TCA. Discard the cultivation media from the plates by flicking them gently and add 100 ul cold 10% (vol/vol) TCA to each well. Incubate the plates at 4 degree refrigerator for 1 hour. Discard TCA from the plates by flicking them gently. Rinse plates four times in a washing basin containing tap water. Store the plates at room temperature. These plates represent cell counts on day zero. • 4. Prepare a set of medium solutions containing various concentrations of tested compounds by making 5-fold serial dilutions in 96-well plate. Add 50 μL of the diluted compounds per well. Include controls with untreated cells and cells treated with doxorubicin, clofarabine and gemcitabine. • 5. Incubate the plates for 5 days at 37° C. • 6. Fix the plates with TCA. Discard the cultivation media from the plates by flicking them gently and add 100 ul cold 10% (vol/vol) TCA to each well. Incubate the plates at 4 degree refrigerator for 1 hour. Discard TCA from the plates by flicking them gently. Rinse plates four times in a washing basin containing tap water. • 7. Remove excess water by tapping the plates face down, gently on a paper towel. Allow the plates to air-dry at room temperature. • 8. Add 100 ul of 0.057% SRB solution in 1% (vol/vol) acetic acid to each well of the plates fixed with TCA on day zero and five. Leave at room temperature for 30 minutes. • 9. Flick the plates gently to discard SRB. Rinse the plates four times with 1% (vol/vol) Acetic Acid. • 10. Store the plates at 37 degree incubator to facilitate faster drying. • 11. Once the plates are completely dry, add 200 ul of 10 mM Tris base solution (pH 10.5) to each well. Leave at room temperature for 30 minutes for SRB to solubilize. • 12. Measure the OD at 500 nm in a microplate reader • 13. Calculate the percentage of cell-growth inhibition using the next formula: % of control cell growth=100×(ODsample−mean ODday0)/(ODneg control−mean ODday0)
(§4) For GI50 determination, plot a dose-response curve between the compound concentration and percent of growth inhibition. GI50 values can be derived by fitting dose-response curves using sigmoidal dose response equation.

Du-145 = conditions: Homo sapiens, DU-145, 120 h; 5 days incubation
Excerpt: as §1, §2, §3, §4

HCT-15 = conditions: Homo sapiens, HCT-15, 120 h; 5 days incubation
Excerpt: as §1, §2, §3, §4

PC3 = conditions: Homo sapiens, PC-3, 120 h; 5 days incubation
Excerpt: as §1, §2, §3, §4

A549 = conditions: Homo sapiens, A549, 120 h; 5 days incubation
Excerpt: as §1, §2, §3, §4

BT-549 = conditions: Homo sapiens, BT-549, 120 h; 5 days incubation
Excerpt: as §1, §2, §3, §4

NCI-H23 = conditions: Homo sapiens, NCI-H23, 120 h; 5 days incubation
Excerpt: as §1, §2, §3, §4

HCT-116 = conditions: Homo sapiens, HCT-116, 120 h; 5 days incubation
Excerpt: as §1, §2, §3, §4

Row | Structure (SMILES) | GI50 (Hs-578) [µM] | GI50 (Du-145) [µM] | GI50 (HCT-15) [µM] | GI50 (PC3) [µM] | GI50 (A549) [µM] | GI50 (BT-549) [µM] | GI50 (NCI-H23) [µM] | GI50 (HCT-116) [µM]
1 | CCCOc1nc(N)nc2c1ncn2CCOCP(=O)(N1CCC[C@H]1C(=O)OC(C)C)N1CCC[C@H]1C(=O)OC(C)C [Example 24] | 0.452 | 0.138 | > 10 | 0.634 | 3.82 | 0.386 | 0.124 | 0.979
2 | COC(=O)[C@@H](C)NP(=O)(COCCn1cnc2c(OC)nc(N)nc21)N[C@H](C)C(=O)OC [Example 32] | 6.6 | 1.49 | > 10 | 8 | 11 | > 10 | 2.62 | 22
3 | CCCCOC(=O)[C@H](C)NP(=O)(COCCn1cnc2c(OC3CC3)nc(N)nc21)Oc1ccccc1 (stereo partly drawn) [Example 58] | 0.042 | 0.001 | 1.03 | 0.06 | 0.204 | 0.585 | 0.003 | 0.114
4 | CCCCOC(=O)[C@H](C)NP(=O)(COCCn1cnc2c(OC3CCCC3)nc(N)nc21)N[C@@H](C)C(=O)OCCCC [Example 47] | 0.05 | 0.001 | 1.81 | 0.008 | 0.103 | 0.326 | 0.004 | 0.055
5 | COc1nc(N)nc2c1ncn2CCOCP(=O)(O)O [Example 2, [2-(2-Amino-6-methoxy-purin-9-yl)-ethoxymethyl]-phosphonic acid] | 2.01 | 0.475 | 4.65 | 3.7 | 2.42 | 4.87 | 0.589 | 5.9
6 | CCCCOC(=O)[C@H](C)NP(=O)(COCCn1cnc2c(OCCC)nc(N)nc21)N[C@@H](C)C(=O)OCCCC [Example 13] | 0.105 | 0.002 | 1.09 | 0.011 | 0.052 | 0.061 | 0.004 | 0.013
7 | CCOC(=O)[C@H](C)NP(=O)(COCCn1cnc2c(OC3CCC3)nc(N)nc21)N[C@@H](C)C(=O)OCC [Example 45] | 0.174 | 0.008 | 8.3 | 0.113 | 0.451 | 0.269 | 0.022 | 0.372
8 | CCCOc1nc(N)nc2c1ncn2CCOCP(=O)(N[C@H](C)C(=O)OC)N[C@H](C)C(=O)OC [Example 18] | 9.1 | 1.28 | 24 | 5.4 | 9.9 | 7.6 | 2.33 | 9
9 | CCCOc1nc(N)nc2c1ncn2CCOCP(=O)(N[C@@H](Cc1ccccc1)C(=O)OCC)Oc1ccccc1 (stereo partly drawn) [Example 55] | 0.149 | 0.004 | 0.815 | 0.059 | 0.08 | 0.756 | 0.009 | 0.047
